Test results as given in EP2197883B1, “Catecholamine derivative useful for the treatment of parkinson's disease” (H. Lundbeck A/S, priority 2007, dated 2009).

Tests used:
PD patients = settings: intravenous (IV); cited from earlier work
[1] = man, after oral dosing; cited from earlier work
[2] = system: mouse model of severe dopamine depletion; assay: Superiority model; assay type: in vivo; settings: mice
From the text: Both Apomorphine and L-DOPA stimulate D1 and D2-like dopamine receptors.

Row | Structure (SMILES) | antiparkinson efficacy (PD patients) | oral bioavailability [1] [%] | reversal of motility deficits / restoration of locomotion [2]
1 | CCCc1cc2c(s1)CN[C@@H]1CCc3cc(OC(C)=O)c(OC(C)=O)cc3[C@@H]21 [Adrogolide] | comparable to that of L-DOPA | ~4 | –
2 | CN1CCc2cccc3c2[C@H]1Cc1ccc(O)c(O)c1-3 [Apomorphine] | – | – | able to reverse motility deficits
3 | N[C@@H](Cc1ccc(O)c(O)c1)C(=O)O [L-DOPA, (levo)-3,4-dihydroxy phenylalanine] | – | – | able to reverse motility deficits
